Measured values: US6779656B2, “Polymerizable preparations based on epoxides that contain silicon” (3M Espe AG, priority 2000, dated 2004)
Read-outs that look alike come from different tables or passages of the source.

Test: Ames test (ISO/FDIS 7405), mutagenicity test
Format: cell-based
Text: The improved toxicity is manifested, for example, in a lower mutagenicity.

O=C(OCC1CCC2OC2C1)C1CCC2OC2C1 (stereo not drawn) [3,4-epoxycyclohexylmethyl 3,4-epoxycyclohexanecarboxylate, reference compound]
Ames test (ISO/FDIS 7405) (mutagenicity): positive

C[Si](C)(CC1CCC2OC2C1)CC1CCC2OC2C1 (stereo not drawn) [dimethylbis[2-(7-oxabicyclo[4.1.0]hept-3-yl)methyl]-silane]
Ames test (ISO/FDIS 7405): negative

C[Si](CCC1CCC2OC2C1)(CCC1CCC2OC2C1)c1ccccc1 (stereo not drawn) [methylbis[2-(7-oxabicyclo[4.1.0]hept-3-yl)ethyl]phenyl-silane]
Ames test (ISO/FDIS 7405): negative
